Laboratory results published in US7166584B1, “Cholesterol transport gene” (Wisconsin Alumni Research Foundation, priority 1999, dated 2007).

What was measured:
ABC1 [1] = target: T1, ABC1 (Mus musculus, UniProt P41233); set-up: host or cells: frog oocytes; conditions: frog oocytes induced to express ABC1; Becq et al. 1997; cited from earlier work
Target sequence in this assay (P41233 61-2261 limits assumed): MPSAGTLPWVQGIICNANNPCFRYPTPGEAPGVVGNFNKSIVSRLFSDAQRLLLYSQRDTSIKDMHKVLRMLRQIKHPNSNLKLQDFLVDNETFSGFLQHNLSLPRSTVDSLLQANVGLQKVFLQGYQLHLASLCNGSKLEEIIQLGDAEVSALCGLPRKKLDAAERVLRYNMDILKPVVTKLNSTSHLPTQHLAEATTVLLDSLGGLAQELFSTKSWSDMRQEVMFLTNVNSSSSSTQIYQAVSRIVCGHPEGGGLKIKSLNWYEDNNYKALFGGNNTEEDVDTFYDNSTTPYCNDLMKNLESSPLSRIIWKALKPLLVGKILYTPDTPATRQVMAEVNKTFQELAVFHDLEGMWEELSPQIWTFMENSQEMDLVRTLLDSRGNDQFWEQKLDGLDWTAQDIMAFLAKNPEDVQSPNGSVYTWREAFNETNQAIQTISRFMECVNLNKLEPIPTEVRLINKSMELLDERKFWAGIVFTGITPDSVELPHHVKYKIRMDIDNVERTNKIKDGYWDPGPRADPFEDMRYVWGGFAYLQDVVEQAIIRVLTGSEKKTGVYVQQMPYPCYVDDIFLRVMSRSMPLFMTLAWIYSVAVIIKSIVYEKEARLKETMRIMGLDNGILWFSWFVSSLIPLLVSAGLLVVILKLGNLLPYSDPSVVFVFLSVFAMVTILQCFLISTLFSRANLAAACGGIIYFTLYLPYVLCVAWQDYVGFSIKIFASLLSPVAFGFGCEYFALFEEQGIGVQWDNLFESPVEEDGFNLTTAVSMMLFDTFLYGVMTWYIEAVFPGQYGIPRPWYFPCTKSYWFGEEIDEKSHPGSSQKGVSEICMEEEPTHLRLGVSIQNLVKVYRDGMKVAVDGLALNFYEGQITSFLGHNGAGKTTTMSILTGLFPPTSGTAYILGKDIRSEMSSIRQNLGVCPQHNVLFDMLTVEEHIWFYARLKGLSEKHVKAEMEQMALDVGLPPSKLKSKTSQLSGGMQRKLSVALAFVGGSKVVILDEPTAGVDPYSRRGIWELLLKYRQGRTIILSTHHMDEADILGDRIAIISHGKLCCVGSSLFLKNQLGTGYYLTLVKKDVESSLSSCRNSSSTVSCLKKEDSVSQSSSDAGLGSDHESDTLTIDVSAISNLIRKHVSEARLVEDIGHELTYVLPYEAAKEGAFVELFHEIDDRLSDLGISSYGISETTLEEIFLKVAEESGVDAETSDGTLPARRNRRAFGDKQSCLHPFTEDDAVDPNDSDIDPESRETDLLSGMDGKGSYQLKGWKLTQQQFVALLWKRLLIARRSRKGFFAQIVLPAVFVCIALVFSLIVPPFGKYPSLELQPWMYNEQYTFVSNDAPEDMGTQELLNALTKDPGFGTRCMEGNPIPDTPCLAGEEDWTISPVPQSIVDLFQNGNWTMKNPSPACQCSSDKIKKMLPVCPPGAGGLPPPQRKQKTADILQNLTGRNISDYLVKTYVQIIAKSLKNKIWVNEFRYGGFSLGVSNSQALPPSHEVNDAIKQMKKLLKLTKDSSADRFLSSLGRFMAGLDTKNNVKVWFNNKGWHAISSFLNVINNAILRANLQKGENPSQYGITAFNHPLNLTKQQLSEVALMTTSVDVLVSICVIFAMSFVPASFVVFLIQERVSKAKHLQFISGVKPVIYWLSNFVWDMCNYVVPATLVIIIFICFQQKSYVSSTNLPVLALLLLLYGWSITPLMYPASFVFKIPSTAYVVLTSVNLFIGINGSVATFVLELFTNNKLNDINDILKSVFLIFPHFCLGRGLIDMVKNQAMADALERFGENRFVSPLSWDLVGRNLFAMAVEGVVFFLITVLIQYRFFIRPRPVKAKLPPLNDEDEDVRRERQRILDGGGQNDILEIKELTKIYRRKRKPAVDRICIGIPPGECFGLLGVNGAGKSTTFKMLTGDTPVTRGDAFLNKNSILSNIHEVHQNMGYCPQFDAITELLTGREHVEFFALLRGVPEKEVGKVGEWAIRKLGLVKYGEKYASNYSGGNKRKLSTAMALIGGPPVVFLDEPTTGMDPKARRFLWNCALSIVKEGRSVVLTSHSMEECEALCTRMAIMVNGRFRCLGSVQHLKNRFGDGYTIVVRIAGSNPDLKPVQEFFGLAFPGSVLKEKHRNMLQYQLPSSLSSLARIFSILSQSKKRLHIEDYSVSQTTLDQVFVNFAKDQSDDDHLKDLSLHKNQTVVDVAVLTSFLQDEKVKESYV

ABC1 [2] = target: T1, ABC1; experiment: Cholesterol efflux from 3H-cholesterol-labeled J774 macrophages to apolipoprotein-A1; format: cell-based; set-up: Mouse macrophages (J774) were labeled with ^3H-cholesterol; endogenous in cells; host or cells: J774 mouse macrophages; conditions: 20 μg/ml human apolipoprotein-A1, indicated concentrations, 24 hours, data only in FIG. 4
Source text: A cholesterol efflux assay measures the ability of cells to transfer cholesterol to an extracellular acceptor molecule and is dependent on ABC1 function. A standard cholesterol efflux assay is set out in Marcil et al., Arterioscler. Thromb. Vasc. Biol. 19:159–169, 1999, incorporated by reference herein for all purposes. Prior to this invention, this assay has not been used to identify compounds useful for reducing cholesterol transport from the gut to the blood or lymph, or for reducing LDL or serum cholesterol levels.
In this procedure, cells are loaded with radiolabeled cholesterol by any of several biochemical pathways. Cholesterol efflux of cells is measured after incubation for various times (typically 0 to 24 hours) in the presence of HDL3 or purified ApoAI. Cholesterol efflux is determined as the percentage of total cholesterol in the culture medium after various times of incubation. Increased ABC1 expression levels and/or biological activity are associated with increased efflux while decreased levels of ABC1 expression and/or biological activity are associated with decreased cholesterol efflux.
ABC1 activity can be inhibited genetically or chemically. […] After 24 hours, the medium was collected, centrifuged, and an aliquot collected for radioactivity determination by liquid scintillation counting. […]
Target sequence in this assay (P41233 whole entry): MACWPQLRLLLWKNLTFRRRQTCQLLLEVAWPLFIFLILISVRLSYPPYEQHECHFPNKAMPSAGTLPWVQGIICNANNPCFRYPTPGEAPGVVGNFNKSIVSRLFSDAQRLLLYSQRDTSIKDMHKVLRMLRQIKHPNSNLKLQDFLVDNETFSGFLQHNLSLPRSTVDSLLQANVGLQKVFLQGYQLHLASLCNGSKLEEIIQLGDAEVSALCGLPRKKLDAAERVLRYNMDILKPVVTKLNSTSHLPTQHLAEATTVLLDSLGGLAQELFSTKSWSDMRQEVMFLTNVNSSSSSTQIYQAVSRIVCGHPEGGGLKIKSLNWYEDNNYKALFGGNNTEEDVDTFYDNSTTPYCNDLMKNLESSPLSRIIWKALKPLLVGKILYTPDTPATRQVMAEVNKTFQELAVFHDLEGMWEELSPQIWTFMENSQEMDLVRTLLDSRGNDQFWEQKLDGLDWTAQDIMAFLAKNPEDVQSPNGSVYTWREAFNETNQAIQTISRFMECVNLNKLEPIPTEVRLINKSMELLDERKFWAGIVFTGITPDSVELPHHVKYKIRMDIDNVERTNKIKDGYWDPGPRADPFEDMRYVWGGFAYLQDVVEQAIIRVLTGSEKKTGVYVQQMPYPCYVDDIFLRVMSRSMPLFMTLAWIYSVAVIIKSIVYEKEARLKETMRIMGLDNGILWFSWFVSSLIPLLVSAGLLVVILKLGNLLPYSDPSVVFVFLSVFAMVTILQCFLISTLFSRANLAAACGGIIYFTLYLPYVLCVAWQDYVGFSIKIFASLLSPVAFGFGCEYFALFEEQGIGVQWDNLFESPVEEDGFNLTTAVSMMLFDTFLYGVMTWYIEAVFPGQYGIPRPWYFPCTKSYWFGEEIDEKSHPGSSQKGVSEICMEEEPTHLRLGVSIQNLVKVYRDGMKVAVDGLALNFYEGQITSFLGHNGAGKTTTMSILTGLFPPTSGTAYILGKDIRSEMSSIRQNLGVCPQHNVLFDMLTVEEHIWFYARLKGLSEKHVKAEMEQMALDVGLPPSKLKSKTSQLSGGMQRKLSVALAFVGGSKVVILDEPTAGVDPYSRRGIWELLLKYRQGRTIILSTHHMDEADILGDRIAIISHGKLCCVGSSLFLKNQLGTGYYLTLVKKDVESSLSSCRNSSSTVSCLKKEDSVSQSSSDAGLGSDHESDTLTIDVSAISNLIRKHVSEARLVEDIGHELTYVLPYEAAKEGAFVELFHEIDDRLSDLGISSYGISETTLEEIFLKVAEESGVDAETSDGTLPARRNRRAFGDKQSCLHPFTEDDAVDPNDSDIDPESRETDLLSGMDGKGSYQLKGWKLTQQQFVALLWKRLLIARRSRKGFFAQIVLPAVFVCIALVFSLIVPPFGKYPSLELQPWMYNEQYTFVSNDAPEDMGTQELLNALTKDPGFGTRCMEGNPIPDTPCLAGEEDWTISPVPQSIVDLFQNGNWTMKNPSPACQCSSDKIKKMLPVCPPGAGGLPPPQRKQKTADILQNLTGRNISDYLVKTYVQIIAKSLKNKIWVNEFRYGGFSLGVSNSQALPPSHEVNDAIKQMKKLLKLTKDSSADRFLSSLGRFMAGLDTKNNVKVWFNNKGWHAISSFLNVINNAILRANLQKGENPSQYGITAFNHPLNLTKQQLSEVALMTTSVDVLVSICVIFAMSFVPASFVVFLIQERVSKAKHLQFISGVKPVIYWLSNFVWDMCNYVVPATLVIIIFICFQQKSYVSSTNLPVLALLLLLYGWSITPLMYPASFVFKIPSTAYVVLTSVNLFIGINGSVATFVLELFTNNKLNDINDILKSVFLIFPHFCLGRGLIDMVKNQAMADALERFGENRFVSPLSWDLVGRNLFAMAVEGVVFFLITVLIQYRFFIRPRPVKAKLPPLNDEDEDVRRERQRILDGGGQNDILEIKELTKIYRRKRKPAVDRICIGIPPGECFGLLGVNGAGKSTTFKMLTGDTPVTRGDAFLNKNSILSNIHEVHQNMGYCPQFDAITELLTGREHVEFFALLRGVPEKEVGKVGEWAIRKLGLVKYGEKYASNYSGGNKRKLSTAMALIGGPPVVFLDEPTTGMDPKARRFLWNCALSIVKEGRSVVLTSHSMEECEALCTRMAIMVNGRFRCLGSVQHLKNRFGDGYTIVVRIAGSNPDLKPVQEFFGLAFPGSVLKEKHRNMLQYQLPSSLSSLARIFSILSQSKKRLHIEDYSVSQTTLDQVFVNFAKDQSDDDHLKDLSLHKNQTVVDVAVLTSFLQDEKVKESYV

COc1ccc(Cl)cc1C(=O)NCCc1ccc(S(=O)(=O)NC(=O)NC2CCCCC2)cc1 [Glyburide]
Inhibition of iodide transport (ABC1 [1]): inhibit iodide transport | Inhibition of ABC1 activity (cholesterol efflux) (ABC1 [2]): inhibit ABC1 activity
